≈ marks a conversion by molar mass, not a printed value. Where a name gives a salt, the structure may show the parent alone.
Columns and labels:
[1] = Solubility in simulated biological media (37° C., HPLC); assay type: physicochemical; conditions: for Solubility compared with the solubility of the free base: simulated biological media
Procedure: (§1) Procedure: About 10 mg of amorphous free base was weighed and placed in a 2 mL glass vial. Then, 1 mL of simulated biological media (simulated artificial gastric juice, simulated artificial intestinal juice-fasting, and simulated artificial intestinal juice-satiety), and a magnetic stirrer were added, and then the vial was sealed. The mixture was magnetically stirred at 37° C. and about 0.4 mL of the sample was taken at different time points. The mixture was filtered with a centrifuge tube (pore size of filter membrane: 0.45 μm), the filtrate was taken and the content of the compound of formula I therein was analyzed by HPLC.
as §1, with “crystal form I of” for “amorphous”, “vial,” for “vial. Then,”, “was” for “were”, “added,” for “added, and”
as §1, with “crystal form of the” for “amorphous”, “and” for “and then”
as §1, with “crystal form I of a phosphate salt” for “amorphous free base”, “(simulated is” for “(simulated”
as §1, with “crystal form III of the mesylate salt” for “amorphous free base”
as §1, with “crystal form III of the 1,5-naphthalenedisulfonate salt” for “amorphous free base”

[2] = Accelerated stability test (HPLC purity, crystal form); assay type: physicochemical; conditions: for Purity ratio: purity after test / initial purity
Procedure: The accelerated stability test of crystal form III of the mesylate salt was used for researching the physical and chemical stability of crystal form III of the mesylate salt. Specific procedure: After the sample was placed in an accelerated stability for a sufficient time under the conditions shown in the table below, the sample was taken out and dissolved in the mobile phase, and then its purity was determined by HPLC. Before the start of the accelerated stability test, the purity of the initial sample was determined by HPLC. The ratio of the purity of the sample after the accelerated stability test to the purity of the initial sample was used as a stability criterion. If the ratio was less than 95% purity, the sample was considered as unstable.

[3] = Bioavailability in dog after single administration by gavage; assay type: in vivo; conditions: 5 mg/kg
Procedure: It could be seen from FIG. 21 that the bioavailability of crystal form III of the mesylate salt was increased by 5 times in comparison to form I of the free base. Experimental conditions: the experimental animal was a dog, a dose of 5 mg/kg, single administration by gavage. Therefore, the salt-form compound has a significant improvement in comparison to the free base.

[4] = simulated artificial gastric juice
[5] = simulated artificial intestinal juice-fasting
[6] = simulated artificial intestinal juice-satiety
[7] = 40° C./75% relative humidity, 1 week

Row | Compound | Solubility (1 hour) [1, 4] [µg/mL] | Solubility (4 hours) [1, 4] [µg/mL] | Solubility (22 hours) [1, 4] [µg/mL] | Solubility (1 hour) [1, 5] [µg/mL] | Solubility (4 hours) [1, 5] [µg/mL] | Solubility (22 hours) [1, 5] [µg/mL] | Solubility (1 hour) [1, 6] [µg/mL] | Solubility (4 hours) [1, 6] [µg/mL] | Solubility (22 hours) [1, 6] [µg/mL] | Solubility compared with the solubility of the free base [1] | Crystal transformation after the accelerated stability test [2, 7] | Purity after the accelerated stability test ([2]; 40° C./75% relative humidity, 1 week, initial purity 98.2%) [%] | Purity ratio [2, 7] [%] | Physical and chemical stability ([2]; 80° C. 1 day and 40° C./75% relative humidity 1 week) | Crystal transformation after the accelerated stability test ([2]; 80° C., 1 day) | Purity after the accelerated stability test ([2]; 80° C., 1 day, initial purity 99.9%) [%] | Purity ratio ([2]; 80° C., 1 day) [%] | Increase of bioavailability in comparison to form I of the free base [3] [times]
1 | CN1C(=O)COc2c1cnc1ccc(Sc3nnc4c(F)cc(-c5cnn(C)c5)cn34)cc21 [Amorphous free base, 9-((8-fluoro-6-(1-methyl-1H-pyrazol-4-yl)-[1,2,4]triazolo[4,3-a]pyridin-3-yl)thio)-4-methyl-2H-[1,4]oxazino[3,2-c]quinolin-3(4H)-one] | 11 (≈ 23.8 µM) | 9 (≈ 19.5 µM) | 9 (≈ 19.5 µM) | 2 (≈ 4.33 µM) | 2 (≈ 4.33 µM) | 2 (≈ 4.33 µM) | 3 (≈ 6.5 µM) | 2 (≈ 4.33 µM) | 2 (≈ 4.33 µM) | – | – | – | – | – | – | – | – | –
2 | CN1C(=O)COc2c1cnc1ccc(Sc3nnc4c(F)cc(-c5cnn(C)c5)cn34)cc21 [Crystal form I of free base, 9-((8-fluoro-6-(1-methyl-1H-pyrazol-4-yl)-[1,2,4]triazolo[4,3-a]pyridin-3-yl)thio)-4-methyl-2H-[1,4]oxazino[3,2-c]quinolin-3(4H)-one] | 18 (≈ 39 µM) | 19 (≈ 41.2 µM) | 19 (≈ 41.2 µM) | 1 (≈ 2.17 µM) | 1 (≈ 2.17 µM) | 2 (≈ 4.33 µM) | 4 (≈ 8.67 µM) | 4 (≈ 8.67 µM) | 4 (≈ 8.67 µM) | – | – | – | – | – | – | – | – | –
3 | CN1C(=O)COc2c1cnc1ccc(Sc3nnc4c(F)cc(-c5cnn(C)c5)cn34)cc21 [Crystal form I of phosphate, 9-((8-fluoro-6-(1-methyl-1H-pyrazol-4-yl)-[1,2,4]triazolo[4,3-a]pyridin-3-yl)thio)-4-methyl-2H-[1,4]oxazino[3,2-c]quinolin-3(4H)-one] | 128 | 135 | 135 | 8 | 4 | 3 | 32 | 33 | 27 | much greater | – | – | – | – | – | – | – | –
4 | CN1C(=O)COc2c1cnc1ccc(Sc3nnc4c(F)cc(-c5cnn(C)c5)cn34)cc21 [Crystal form III of free base, 9-((8-fluoro-6-(1-methyl-1H-pyrazol-4-yl)-[1,2,4]triazolo[4,3-a]pyridin-3-yl)thio)-4-methyl-2H-[1,4]oxazino[3,2-c]quinolin-3(4H)-one] | 40 (≈ 86.7 µM) | 43 (≈ 93.2 µM) | 43 (≈ 93.2 µM) | 4 (≈ 8.67 µM) | 4 (≈ 8.67 µM) | 4 (≈ 8.67 µM) | 11 (≈ 23.8 µM) | 11 (≈ 23.8 µM) | 10 (≈ 21.7 µM) | – | – | – | – | – | – | – | – | –
5 | CN1C(=O)COc2c1cnc1ccc(Sc3nnc4c(F)cc(-c5cnn(C)c5)cn34)cc21 [Crystal form III of mesylate, 9-((8-fluoro-6-(1-methyl-1H-pyrazol-4-yl)-[1,2,4]triazolo[4,3-a]pyridin-3-yl)thio)-4-methyl-2H-[1,4]oxazino[3,2-c]quinolin-3(4H)-one] | 211 | 200 | 12.5 | 5 | 5 | 5 | 20 | 14 | 10 | much greater | No | 98.8 | 100.6 | good physical and chemical stability | No | 99.7 | 99.8 | 5
6 | CN1C(=O)COc2c1cnc1ccc(Sc3nnc4c(F)cc(-c5cnn(C)c5)cn34)cc21 [Crystal form III of the 1,5-naphthalenedisulfonate salt] [9-((8-fluoro-6-(1-methyl-1H-pyrazol-4-yl)-[1,2,4]triazolo[4,3-a]pyridin-3-yl)thio)-4-methyl-2H-[1,4]oxazino[3,2-c]quinolin-3(4H)-one] | 182 | 27 | 30 | 12 | 10 | 5 | 48 | 33 | 13 | much greater | – | – | – | – | – | – | – | –
